This is an account of results in patent US20240238268A1, “TREATMENTS AND METHODS FOR TREATING ALZHEIMER'S DISEASE” (Board of Supervisors of Louisiana State University and …, priority 2021, published 2024).

The structures appear in SMILES notation.

The experiment concerns amyloid precursor protein (APP). Nature of the experiment: Amyloid precursor protein level in brain, capillary-phoresis. It counts as in vivo, mouse. The conditions noted are these: treated 3xTg-AD mice; controls = 100%; not significantly changed vs untreated 3xTg. The source says: Capillary-phoresis immunoassay via ProteinSimple®: Quantification of all protein targets was achieved using Simple Western analysis in a Jess™ apparatus per the manufacturer's protocol (ProteinSimple, Bio-techne, Minneapolis, MN). Protein was extracted from dissected tissue in an extraction buffer consisting of T-PER® Tissue Protein Extraction Reagent (Cat. No. 78510, Thermo Fischer Scientific, Waltham, MA) and Halt™ Protease Inhibitor Cocktail (Cat. No. 87785, Thermo Fischer Scientific, Waltham, MA). Following homogenization and centrifugation (10,000×g, 5 min, 4° C.), protein concentration was determined in tissue protein supernatant samples using DC Protein Assay (Cat. No. 5000112, Bio-Rad Laboratories, Hercules, California) according to manufacturer instructions. […] Antibody diluent (ProteinSimple, Bio-techne, Minneapolis, MN) was used for all antibody dilutions as follows: PRMT4 (1:50, RRID: AB_2068436), PRMT6 (1:100, Cell Signaling Technology cat. 14641), eNOS (1:200, RRID: AB_10850618), nNOS (1:100, RRID: AB_2152488), iNOS (1:100, RRID: AB_10000625), DDAH2 (1:50, RRID: AB_2640442) Antibodies were detected using HRP-conjugated secondary anti-rabbit, and -mouse. Relative protein levels were calculated by measuring the area under the peak of a chemiluminescent chromatogram and normalized to total capillary chemiluminescence for a given sample. […]

`CNCCN1CCC(c2cc(CN(C)C(=O)c3cccc(Oc4ccccc4)c3)ccn2)CC1` [TP-064, N-Methyl-N-((2-(1-(2-(methylamino)ethyl)piperidin-4-yl)pyridin-4-yl)methyl)-3-phenoxybenzamide]: the “APP level in cortex” value is 801%±36.3 and the “APP level in hippocampus” value is given as 1040%±31.1.
